Source: patent US4587248A, “4-alkyl-thiophenyl-ethanolamines, having an activity the cerebral circulation, the blood platelet-aggregation and the lipenia” (priority 1981, dated 1986)
Like-named read-outs stand apart in the source and are kept apart here.

Tests used:
[1] = test system: depolarized aorta of rats; test: contraction-promoting effect of bivalent calcium ions on the depolarized aorta of rats (Godfraind and Kaba 1972)
isolated rat aorta = test: contractions of isolated rat aorta (Godfraind and Kaba 1969)
[2] = test system: isolated intestines of rats; test: spasmolytic activity in vitro on isolated intestines of rats
[3] = test system: contractions caused by norepinephrine on the deferent duct; test: contractions caused by norepinephrine on the deferent duct (Barnett et al)
[4] = test system: isolated intestines of Guinea pigs; test: spasmolytic activity in vitro on isolated intestines of Guinea pigs
mice = conditions: for Slope (fiducial limits): LD50, mice; for LD50, fiducial limits / LD50, fiducial limits (micromol/kg equivalent): mice; for LD50, fiducial limits (micromol/kg equivalent): in brackets
in vivo = conditions: mouse, ip
rats = conditions: for LD50, fiducial limits / LD50, fiducial limits (micromol/kg equivalent): rats; for Slope (fiducial limits): LD50, rats; for LD50, fiducial limits (micromol/kg equivalent): in brackets

Structure (SMILES): CC(C)Sc1ccc([C@@H](O)[C@@H](C)N2CCN(C(=O)C=Cc3ccccc3)CC2)cc1 (relative stereo) [1-(4-isopropylthiophenyl)-2-(4-cinnamoyl-piperazine-1-yl)-1-propanol]
- inhibition of the contraction-promoting effect of bivalent calcium ions on the depolarized aorta [1]: has been inhibited
- inhibition of contractions of isolated rat aorta (isolated rat aorta): inhibit the contractions of isolated rat aorta
- spasmolytic activity [2]: considerable spasmolytic activity
- inhibition of contractions caused by norepinephrine on the deferent duct [3]: inhibit the contractions caused by norepinephrine
- spasmolytic activity [4]: considerable spasmolytic activity

Structure (SMILES): CC(C)Sc1ccc([C@@H](O)[C@H](C)N2CCN(C(=O)C=Cc3ccccc3)CC2)cc1 (relative stereo) [1-(4-isopropylthiophenyl)-2-(4-cinnamoyl-piperazine-1-yl)-1-propanol]
- Slope (fiducial limits) (mice; intraperitoneally): 1.36 (1.14-1.47)
- Slope (fiducial limits) (mice; orally): 1.25 (1.10-1.42)
- LD50, fiducial limits (mice; intraperitoneally (TABLE 2)): 782-1082 mg/kg b.w.
- LD50, fiducial limits (micromol/kg equivalent) (mice; intraperitoneally (TABLE 2)): 1842 to 2548 µmol/kg
- LD50, fiducial limits (mice; orally (TABLE 2)): 3166-4208 mg/kg b.w.
- LD50, fiducial limits (micromol/kg equivalent) (mice; orally (TABLE 2)): 6867 to 9127 µmol/kg
- inhibition of the contraction-promoting effect of bivalent calcium ions on the depolarized aorta [1]: has been inhibited
- inhibition of contractions of isolated rat aorta (isolated rat aorta): inhibit the contractions of isolated rat aorta
- spasmolytic activity [2]: considerable spasmolytic activity
- inhibition of contractions caused by norepinephrine on the deferent duct [3]: inhibit the contractions caused by norepinephrine
- spasmolytic activity [4]: considerable spasmolytic activity

Structure (SMILES): CC(C)Sc1ccc([C@@H](O)[C@H](C)N2CCN(C(=O)C=Cc3ccccc3)CC2)cc1 (relative stereo) [Compound 1]
- LD50 (in vivo): 920 mg/kg

Structure (SMILES): CC(C)Sc1ccc([C@@H](O)[C@@H](C)N2CCN(C(=O)C=Cc3ccccc3)CC2)cc1 (relative stereo) [Compound 2]
- LD50 (in vivo): > 4000 mg/kg

Structure (SMILES): COc1cc(C=CC(=O)N2CCN(C(C)C(O)c3ccc(SC(C)C)cc3)CC2)cc(OC)c1OC (centres unmarked) [Compound 3]
- LD50 (in vivo): > 400 mg/kg

Structure (SMILES): CC(C)Sc1ccc(C(O)C(C)N2CCN(CC=Cc3ccccc3)CC2)cc1 (centres unmarked) [Compound 4]
- LD50 (in vivo): 300 mg/kg

Structure (SMILES): COc1cc(C=CCN2CCN(C(C)C(O)c3ccc(SC(C)C)cc3)CC2)cc(OC)c1OC (centres unmarked) [Compound 5]
- LD50 (in vivo): 75 mg/kg

Structure (SMILES): CC(C)Sc1ccc(C(O)C(C)Nc2ccccc2)cc1 (centres unmarked) [Compound 6]
- LD50 (in vivo): 400 mg/kg

Structure (SMILES): CC(C)Sc1ccc(C(O)C(C)Nc2ccccc2C2CCCCC2)cc1 (centres unmarked) [Compound 7]
- LD50 (in vivo): > 400 mg/kg

Structure (SMILES): CC(C)Sc1ccc(C(O)C(C)Nc2cccc(C3CCCCC3)c2)cc1 (centres unmarked) [Compound 8]
- LD50 (in vivo): 500 mg/kg

Structure (SMILES): CC(C)Sc1ccc(C(O)C(C)Nc2ccc(C3CCCCC3)cc2)cc1 (centres unmarked) [Compound 9]
- LD50 (in vivo): > 400 mg/kg

Structure (SMILES): CC(C)Sc1ccc(C(O)C(C)NC2CCCCC2c2ccccc2)cc1 (centres unmarked) [Compound 11]
- LD50 (in vivo): > 400 mg/kg

Structure (SMILES): CC(C)Sc1ccc(C(O)C(C)NC2CCC(c3ccccc3)CC2)cc1 (centres unmarked) [Compound 13]
- LD50 (in vivo): 150 mg/kg

Structure (SMILES): Fc1ccc(C(c2ccc(F)cc2)N2CCN(C/C=C/c3ccccc3)CC2)cc1 [Flunarizine]
- LD50, fiducial limits (mice; intraperitoneally (TABLE 2)): 325-386 mg/kg b.w.
- LD50, fiducial limits (mice; orally (TABLE 2)): 498-687 mg/kg b.w.
- LD50, fiducial limits (rats; intraperitoneally (TABLE 2)): 332-543 mg/kg b.w.
- LD50, fiducial limits (rats; orally (TABLE 2)): 1714-2773 mg/kg b.w.

Structure (SMILES): CCCCCCCCNC(C)C(O)c1ccc(SC(C)C)cc1 (centres unmarked) [Suloctidil]
- Slope (fiducial limits) (mice; intraperitoneally): 1.55 (1.33-1.82)
- Slope (fiducial limits) (mice; orally): 1.24 (1.18-1.30)
- LD50, fiducial limits (mice; intraperitoneally (TABLE 2)): 26.8-39.4 mg/kg b.w.
- LD50, fiducial limits (micromol/kg equivalent) (mice; intraperitoneally (TABLE 2)): 70.4 to 116.7 µmol/kg
- LD50, fiducial limits (mice; orally (TABLE 2)): 2016-2511 mg/kg b.w.
- LD50, fiducial limits (micromol/kg equivalent) (mice; orally (TABLE 2)): 5972 to 7439 µmol/kg
- LD50 (in vivo): 32.5 mg/kg
- Slope (fiducial limits) (rats; intraperitoneally): 1.86 (1.42-2.44)
- Slope (fiducial limits) (rats; orally): 1.18 (1.13-1.22)
- LD50, fiducial limits (rats; intraperitoneally (TABLE 2)): 32-69 mg/kg b.w.
- LD50, fiducial limits (micromol/kg equivalent) (rats; intraperitoneally (TABLE 2)): 94.8 to 204.4 µmol/kg
- LD50, fiducial limits (rats; orally (TABLE 2)): 1603-1976 mg/kg b.w.
- LD50, fiducial limits (micromol/kg equivalent) (rats; orally (TABLE 2)): 4749 to 5854 µmol/kg
